The target of the experiment is T1, angiotensin converting enzyme (Oryctolagus cuniculus, UniProt P12822).
T1 construct: Rabbit lung acetone powder was extracted with 10 volumes of 50 mM sodium borate buffer; from tissue; host or cells: rabbit lung (acetone powder, borate buffer extract, 40,000 x g supernatant)
T1 sequence (P12822 34-1310): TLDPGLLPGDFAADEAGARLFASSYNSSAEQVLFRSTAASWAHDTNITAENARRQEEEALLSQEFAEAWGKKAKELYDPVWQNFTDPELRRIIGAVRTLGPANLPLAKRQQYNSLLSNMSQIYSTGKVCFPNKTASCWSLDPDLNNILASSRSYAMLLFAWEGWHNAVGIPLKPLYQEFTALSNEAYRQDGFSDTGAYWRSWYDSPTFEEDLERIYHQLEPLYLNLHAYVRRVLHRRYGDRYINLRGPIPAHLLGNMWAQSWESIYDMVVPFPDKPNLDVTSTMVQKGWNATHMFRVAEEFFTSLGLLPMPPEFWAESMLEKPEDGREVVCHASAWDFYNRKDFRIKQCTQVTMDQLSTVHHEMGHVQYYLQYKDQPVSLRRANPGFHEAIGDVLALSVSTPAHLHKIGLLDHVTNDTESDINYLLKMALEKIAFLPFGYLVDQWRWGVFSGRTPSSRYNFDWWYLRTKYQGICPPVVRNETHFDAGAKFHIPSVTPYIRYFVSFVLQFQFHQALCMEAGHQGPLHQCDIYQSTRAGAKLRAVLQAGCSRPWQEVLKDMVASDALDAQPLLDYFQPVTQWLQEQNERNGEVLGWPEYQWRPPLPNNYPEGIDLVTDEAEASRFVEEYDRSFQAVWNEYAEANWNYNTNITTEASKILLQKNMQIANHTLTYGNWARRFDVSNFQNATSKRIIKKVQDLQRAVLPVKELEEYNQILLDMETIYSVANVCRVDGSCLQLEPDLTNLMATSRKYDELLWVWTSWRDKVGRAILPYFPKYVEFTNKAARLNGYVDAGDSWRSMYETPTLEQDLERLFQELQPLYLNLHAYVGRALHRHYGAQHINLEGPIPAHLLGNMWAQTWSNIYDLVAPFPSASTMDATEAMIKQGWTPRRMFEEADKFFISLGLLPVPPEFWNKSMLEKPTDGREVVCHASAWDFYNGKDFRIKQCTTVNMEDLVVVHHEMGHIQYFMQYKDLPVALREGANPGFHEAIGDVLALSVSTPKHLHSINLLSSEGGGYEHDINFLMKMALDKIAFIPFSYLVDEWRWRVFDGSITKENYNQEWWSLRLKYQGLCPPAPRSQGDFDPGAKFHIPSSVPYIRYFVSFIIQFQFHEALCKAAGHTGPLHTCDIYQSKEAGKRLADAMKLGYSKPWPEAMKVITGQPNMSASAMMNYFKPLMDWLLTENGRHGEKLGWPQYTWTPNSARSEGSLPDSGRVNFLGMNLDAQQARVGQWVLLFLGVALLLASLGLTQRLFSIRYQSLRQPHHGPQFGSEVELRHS
As to the kind of experiment: Inhibitory activity of angiotensin converting enzyme (rabbit lung acetone powder extract, HHL substrate, modified Cushman method). The class given is biochemical. The note with it: preincubated 30 minutes, reacted with HHL at 37° C. for 30 minutes; for inhibition at 0.0002 µM: inhibitor concentration 2 × 10^-4 μM; for inhibition at 20 pM: inhibitor concentration 2 × 10^-5 μM. As to the method: The inhibitory activity of angiotensin converting enzyme for the compounds of this invention prepared by above examples was determined as follows;
The inhibitory activity was determined by using a modification of the method of Cushman, et al. [Biochemical Pharmacology, 20, 1637(1971)] Rabbit lung acetone powder was extracted with 10 volumes of 50 mM sodium borate buffer solution(pH 8.3) by homogenization at 4° C. and centrifuged for 40 minutes at 40,000 ×g.
The supernatant which contained angiotensin converting enzyme was used for ACE assay. Hippuryl-L-histidyl-L-leucine(HHL) was used as a substrate of enzymatic reaction and the reaction was determined in 13×100 mm of test tube.
The assay mixture (total volume, 0.25 ml) consisted of 50 mM sodium borate buffer (pH 8.3), 300 mM sodium chloride, and 5 mM HHL(pH 8.3), and they were reacted by addition of 0~10 mU of rabbit lung acetone powder extract for 30 minutes at 37° C.
The volume of enzyme extract was 0.15 ml or below and the reaction solution was preincubated at 37° C. for 30 minutes without the substrate and after adding HHL reacted for 30 minutes, the reaction was terminated by addition of 0.25 ml of 1N-HCl aqueous solution.
In the case of blank assay, hydrochloric acid was added before adding the enzyme extract. Hippuric acid was extracted with 1.5 ml of ethyl acetate which was separated by centrifuging at 3,000 rpm for 10 minutes. 1.0ml of ethyl acetate layer was transferred into the test tube and evaporated at 90° C. for 1 hour on temp-block.
Hippuric acid was dissolved in 1.0 ml of 50 mM sodium borate buffer (pH 8.3) and qualified from its absorbance at 228 nm. The final concentration of inhibitor was adjusted to 2×10^-4, 2×10^-5 μM with sodium borate buffer solution(pH 8.3) and reaction solution without the substrate was preincubated for 30 minutes and after adding the substrate, it was reacted at 37° C. for 30 minutes and terminated with 1N-HCl.
The synthesized inhibitors with non-water soluble property were dissolved by ultrasonic treatment.

The structures appear in SMILES notation.

For the compound `CCCCCCCCCCCCCCCCCCOCC(COP(=O)(O)SC[C@@H](C)C(=O)N1CCC[C@H]1C(=O)OCc1ccc([N+](=O)[O-])cc1)OC(=O)CCCCCCCCCCCCCCC` (mixture of isomers) [Compound 1, rac-1-O-octadecyl-2-O-palmitoyl-glyceryl-3-phosphorylcaptopril-p-nitrobenzyl ester], 0.0002 µM produced 77% inhibition and testing at 20 pM gave an inhibition of 39%.
On to `CCCCCCCCCCCCCCCCCCOCC(COP(=O)(O)SC[C@@H](C)C(=O)N1CCC[C@H]1C(=O)O)OC(=O)CCCCCCCCCCCCCCC` (mixture of isomers) [Compound 2, rac-1-O-octadecyl-2-O-palmitoyl-glyceryl-3-phosphoryl captopril], for which at 0.0002 µM the inhibition was 97% and the inhibition at 20 pM turned out to be 80%.
`CCCCCCCCCCCCCCCCCCOCC(COP(=O)(O)SC[C@@H](C)C(=O)N1CCC[C@H]1C(=O)OCc1ccc([N+](=O)[O-])cc1)OC(C)=O` (mixture of isomers) [Compound 3, rac-1-O-octadecyl-2-O-acetyl-glyceryl-3-phosphoryl captopril-p-nitrobenzyl ester]: the inhibition at 0.0002 µM turned out to be 85% and the inhibition at 20 pM was 60%.
Turning to `CCCCCCCCCCCCCCCCCCOCC(COP(=O)(O)SC[C@@H](C)C(=O)N1CCC[C@H]1C(=O)O)OC(C)=O` (mixture of isomers) [Compound 4, rac-1-O-octadecyl-2-O-acetyl-glyceryl-3-phosphoryl captopril], the inhibition at 0.0002 µM stood at 98% and at 20 pM the inhibition was 98%.
The compound `CCCCCCCCCCCCCCCCCCSCC(COP(=O)(O)SC[C@@H](C)C(=O)N1CCC[C@H]1C(=O)OCc1ccc([N+](=O)[O-])cc1)OC(=O)CCCCCCCCCCCCCCC` (mixture of isomers) [Compound 5, rac-1-S-octadecyl-2-O-palmitoyl-thioglyceryl-3-phosphoryl captopril-p-nitrobenzyl ester] showed an inhibition at 0.0002 µM of 31% and an inhibition at 20 pM of 4%.
`CCCCCCCCCCCCCCCCCCSCC(COP(=O)(O)SC[C@@H](C)C(=O)N1CCC[C@H]1C(=O)O)OC(=O)CCCCCCCCCCCCCCC` (mixture of isomers) [Compound 6, rac-1-S-octadecyl-2-O-palmitoyl-thioglyceryl-3-phosphoryl captopril]: testing at 0.0002 µM gave an inhibition of 92% and 20 pM produced 70% inhibition.
`CCCCCCCCCCCCCCCCCCSCC(COP(=O)(O)SC[C@@H](C)C(=O)N1CCC[C@H]1C(=O)OCc1ccc([N+](=O)[O-])cc1)OC(C)=O` (mixture of isomers) [Compound 7, rac-1-S-octadecyl-2-O-acetyl-thioglyceryl-3-phosphoryl captopril-p-nitrobenzyl ester] registered an inhibition at 0.0002 µM of 78% and an inhibition at 20 pM of 43%.
In the case of `CCCCCCCCCCCCCCCCCCSCC(COP(=O)(O)SC[C@@H](C)C(=O)N1CCC[C@H]1C(=O)O)OC(C)=O` (mixture of isomers) [Compound 8, rac-1-S-octadecyl-2-O-acetyl-thioglyceryl-3-phosphoryl captopril], the inhibition at 0.0002 µM is 90% and the inhibition at 20 pM is 80%.

The values are drawn from US5358961A, “Pyrrolidine derivatives” (Jin Ro Limited, priority 1991, dated 1994).
